Test results taken from PubChem BioAssay (NCI).
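Cells were grown in 96-well plates and exposed to each compound for 48 hours at five concentrations; endpoints were interpolated linearly between bracketing concentrations, or set to the highest concentration if not reached. GI50 = concentration required for 50% inhibition of growth. TGI: concentration producing complete growth inhibition.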

How the values were obtained:
Experiment in all cases: growth of human tumour cells (NCI), 48 h
SK-MEL-5 melanoma = test system: SK-MEL-5 melanoma
HOP-92 NSCLC = test system: HOP-92 NSCLC
TK-10 renal = test system: TK-10 renal
UO-31 renal = test system: UO-31 renal
ACHN renal = test system: ACHN renal
SN12C renal = test system: SN12C renal
HCT-116 colon = test system: HCT-116 colon
IGROV1 ovarian = test system: IGROV1 ovarian
HCT-15 colon = test system: HCT-15 colon
COLO 205 colon = test system: COLO 205 colon
NCI-H460 lung = test system: NCI-H460 lung
HOP-62 NSCLC = test system: HOP-62 NSCLC
CAKI-1 renal = test system: CAKI-1 renal
RXF 393 renal = test system: RXF 393 renal
OVCAR-8 ovarian = test system: OVCAR-8 ovarian
MDA-MB-435 = test system: MDA-MB-435
MCF7 breast = test system: MCF7 breast

Structure (SMILES) | TGI (SK-MEL-5 melanoma) [µM] | TGI (HOP-92 NSCLC) [µM] | TGI (TK-10 renal) [µM] | TGI (UO-31 renal) [µM] | TGI (ACHN renal) [µM] | TGI (SN12C renal) [µM] | TGI (HCT-116 colon) [µM] | TGI (IGROV1 ovarian) [µM] | TGI (HCT-15 colon) [µM] | TGI (COLO 205 colon) [µM] | TGI (NCI-H460 lung) [µM] | TGI (HOP-62 NSCLC) [µM] | TGI (CAKI-1 renal) [µM] | TGI (RXF 393 renal) [µM] | TGI (OVCAR-8 ovarian) [µM] | TGI (MDA-MB-435) [µM] | GI50 (ACHN renal) [µM] | GI50 (OVCAR-8 ovarian) [µM] | GI50 (MCF7 breast) [µM] | TGI (MCF7 breast) [µM]
C[Si](C)(C)/C=C/CN1C(=O)CCC1=O | > 100 | > 100 | > 100 | > 100 | > 100 | > 100 | > 100 | > 100 | > 100 | > 100 | > 100 |  |  |  |  |  |  |  |  | 
COc1cc2c(cc1OC)[C@H]1C(COC(=O)Nc3ccccc3)CN1CC2 (some centres undefined) | > 100 | > 100 | > 100 | > 100 | > 100 | > 100 | > 100 | > 100 | > 100 | > 100 | > 100 | > 100 | > 100 | > 100 | > 100 |  |  |  |  | 
CCOC(OC1=C(C#N)CCCC1)C(CC)[Se]c1ccccc1[N+](=O)[O-] (centres undefined) | 28.7 | 40.6 | > 100 | 80.5 | 80.7 | 42.7 | 36.8 | 72 | 37.1 | > 100 | > 100 | 88.8 | > 100 | 65.7 | 48.7 |  |  |  |  | 
COC(=O)C(C#N)C1NC(=O)c2ccccc21 (centres undefined) | > 100 | > 100 | > 100 | > 100 | > 100 | > 100 | > 100 | > 100 | > 100 | > 100 | > 100 | > 100 |  | > 100 | > 100 |  |  |  |  | 
O=C(O)CCC(NC(=O)c1ccc(CNc2nc3cc(C(F)(F)F)ccc3nc2C(=O)O)cc1)C(=O)O (centres undefined) |  | > 100 | > 100 | > 100 | > 100 |  | > 100 | > 100 | > 100 | > 100 | > 100 | > 100 | > 100 | > 100 | > 100 | > 100 |  |  |  | 
C/C(=C\CC/C=C(\C)CC/C=C(\C)CCC1SC1(C)C)CC/C=C(\C)CCC1OC1(C)C (centres undefined) | > 100 | > 100 | > 100 | > 100 | > 100 | > 100 | > 100 | > 100 | > 100 | > 100 | > 100 |  | > 100 | > 100 | > 100 |  |  |  |  | 
Cn1c(=O)[nH]c2c(c1=O)C(=O)CN2 | > 100 |  | > 100 | > 100 |  | > 100 | > 100 | > 100 | > 100 | > 100 | > 100 |  | > 100 | > 100 | > 100 |  |  |  |  | 
COc1cc2cnc3c4cc(OC)c(OC(C)C)cc4ccc3c2cc1OC | > 100 | > 100 | > 100 | > 100 | > 100 | > 100 | > 100 | > 100 | > 100 | > 100 | > 100 | > 100 | > 100 | > 100 | > 100 |  |  |  |  | 
CC(O)C1OC(n2ccc(=O)[nH]c2=O)CC1n1cncn1 (centres undefined) | > 100 |  | > 100 | > 100 | > 100 | > 100 | > 100 | > 100 | > 100 | > 100 | > 100 | > 100 | > 100 | > 100 | > 100 |  |  |  |  | 
CN(C(=O)c1ccccc1)c1ccc2c(c1)C(=O)c1ccccc1C2=O |  | > 100 | > 100 | > 100 | > 100 | > 100 | > 100 | > 100 | > 100 | > 100 | > 100 | > 100 | > 100 | > 100 | > 100 |  |  |  |  | 
CC1=NNC(=O)C1C1C=C(c2c[nH]c3ccccc23)OC1=O (centres undefined) | > 100 | > 100 | > 100 | > 100 | > 100 | > 100 | > 100 | > 100 | > 100 | > 100 | > 100 | > 100 | > 100 | > 100 | > 100 | > 100 |  |  |  | 
COC(=O)/C(=N\N)C(C(=O)C(=O)Nc1nc(=S)[nH][nH]1)c1nc2ccc([N+](=O)[O-])cc2[nH]c1=O (centres undefined) | > 100 | > 100 | > 100 | > 100 | > 100 | > 100 | > 100 | > 100 | > 100 | > 100 | > 100 | > 100 | > 100 | > 100 | > 100 |  |  |  |  | 
COc1cc([C@@H]2c3cc4c(cc3[C@@H](NC(=O)NO)[C@H]3COC(=O)[C@H]23)OCO4)cc(OC)c1O |  | > 100 | > 100 |  |  | > 100 | > 100 | > 100 | > 100 | > 100 | > 100 | > 100 | > 100 |  | > 100 |  | 6.04 | 34.4 | 7.84 | > 100
CC(C)=CCOc1ccc(-c2coc3cc4c(c(O)c3c2=O)C=CC(C)(C)O4)cc1 | 0.932 |  | > 100 | > 100 | > 100 | > 100 | > 100 | > 100 | > 100 | > 100 | > 100 | > 100 |  | > 100 | > 100 |  |  |  |  | 
C/C(=N/N)c1sc(-c2nc(C)c(/C(C)=N\N)s2)nc1C | > 100 | > 100 | > 100 | > 100 | > 100 | > 100 | > 100 | > 100 | > 60.8 | > 68.9 | > 100 | > 100 | > 100 | > 100 | > 100 |  |  |  |  | 
CCOC(=O)c1ccn2c(c1)c(C#N)c1nc3ccccc3nc12 | > 100 |  | > 100 | > 100 | > 100 | > 100 | > 100 | 59.8 | > 100 | > 100 | > 100 | > 100 | > 100 |  | > 100 |  |  |  |  | 
Oc1ccc(/C=N/c2nccs2)c(O)c1 | > 100 |  | > 100 | > 100 | > 100 |  | > 100 | > 100 | > 100 | 92.1 | > 100 | > 100 | > 100 | > 100 | > 100 |  |  |  |  | > 100
O=C1c2c(O)cccc2Cc2cc(CO)cc(O)c21 | 3.75 | 4.21 | 14.9 | 4.97 | 12.4 | 16.9 | 16.7 | 20.1 | 11.3 | 4.9 | 8.04 | 11.9 |  |  | 12.8 | 15.5 |  |  |  | 
N#CCCN(CCC#N)c1ccc(/C=C(/NC(=O)Nc2ccccc2Cl)NC(=O)c2cc([N+](=O)[O-])ccc2Cl)cc1 | > 100 | > 100 | > 100 | > 100 | > 100 | > 100 | > 100 | > 100 | > 100 | > 100 |  | > 100 | > 100 | > 100 | > 100 |  |  |  |  | 
COC(=O)C(=O)C(C(C)=O)C(=O)C(=O)Nc1ccc(C)cc1C (centres undefined) | > 100 | > 100 | > 100 | > 100 | > 100 | > 100 | > 100 | > 100 | > 100 | > 100 | > 100 | > 100 | > 100 | > 100 | > 100 |  |  |  |  | 
CCCCCC(/C=C/c1ncccc1OCCCCCC(=O)O)=N\NC1=NCCN1 |  | > 100 | > 100 | > 100 | > 100 | > 100 | > 100 | > 100 | > 100 | > 100 | > 100 | > 100 | > 100 | > 100 | > 100 |  |  |  |  | 
COC1(C)CNCC(C)(C)NC(=O)C(C)(OC)CNCC(C)(C)NC1=O (centres undefined) | > 100 | > 100 | > 100 | > 100 | > 100 | > 100 | > 100 | > 100 | > 100 | > 100 | > 100 | > 100 | > 100 | > 100 | > 100 |  |  |  |  | 
CC12CCC(=O)[C@@]1(C)CCCC2O (some centres undefined) | > 100 |  | > 100 | > 100 | > 100 | > 100 | > 100 | > 100 | > 100 | > 100 | > 100 | > 100 | > 100 |  | > 100 |  |  |  |  | > 100
CC(=O)OCC1OC(n2c(O)c(N=NC(N)=S)c3ccc([N+](=O)[O-])cc32)C(OC(C)=O)C1OC(C)=O (centres undefined) | > 100 | > 100 | > 100 |  | > 100 | > 100 | 29.5 | > 100 | > 100 | > 100 | 66.2 | > 100 | > 100 | 45.9 | 43.1 |  |  |  |  | 
